Test results taken from patent US11440931B2, “Crocins compounds and uses thereof” (Jinan University, priority 2016, dated 2022).

How the values were obtained:
SH-SY5Y nerve cells [1] = experiment: L-glutamic acid-damaged SH-SY5Y cell model (MTT); assay type: cell-based; details: summary in words
Method: (§1) 2.1 Method for Culturing SH-SY5Y Nerve Cells
(§2) The SH-SY5Y nerve cells were cultured in a DMEM culture medium (containing 5% of fetal calf serum in volume fraction) in an incubator containing 5% CO2 at 37° C., while subculturing every 3 to 4 days. Cells in a logarithmic phase were selected for experiments.
2.3 Method for Screening with L-Glutamic Acid-Damaged Models
SH-SY5Y cells were inoculated at a concentration of 5×10^3 in a 96-well plate, and then cultured for 24 h, and 100 μL of a liquid culture medium containing L-glutamic acid and a crocin-like compound was added to a 96-well plate, such that a final concentration of L-glutamic acid was 160 mM and a final medication concentration of the crocin-like compound was 10 μM, 1 μM, 0.1 μM, with each concentration in triplicate, followed by culturing for 24 h. After 24 h, a supernatant was sucked out and discarded, to each well was added 100 μL of MTT (0.5 mg/mL), followed by incubation for 4 h. A supernatant was sucked out and discarded, to each well was added 150 μL of DMSO, followed by shaking for 10 min, and a wavelength of 570 nm was selected to measure a value of absorbancy on a microplate reader^[13]. (Effective rate %=(ODcrocin-like compound−ODmodel)/(ODcontrol−ODmodel)*100).

SH-SY5Y nerve cells [2] = experiment: Hydrogen peroxide-damaged SH-SY5Y cell model (MTT); assay type: cell-based; details: summary in words
Method: as §1, §2
2.2 Method for Screening with Hydrogen Peroxide-Damaged Models
SH-SY5Y cells were inoculated at a concentration of 5×10^3 in a 96-well plate, and then cultured for 24 h, and 100 μL of a liquid culture medium containing H2O2 and a crocin-like compound was added to the 96-well plate, such that a final concentration of H2O2 was 400 μM and a final concentration of the crocin-like compound was 10 μM, 1 μM, 0.1 μM, with each concentration in triplicate, followed by culturing for 24 h. After 24 h, a supernatant was sucked out and discarded, and to each well was added 100 μL of MTT (0.5 mg/mL), followed by incubation for 4 h. A supernatant was sucked out and discarded, to each well was added 150 μL of DMSO, followed by shaking for 10 min, and a wavelength of 570 nm was selected to measure a value of absorbancy on a microplate reader^[12]. (Effective rate %=(ODcrocin-like compound−ODmodel)/(ODcontrol−ODmodel)*100).

PC-12 cells = details: antioxidant effect (GSH increase, inhibition of peroxidized lipid, SOD retained); cited from earlier work

SMILES | protection effect on SY5Y cell damage models induced by L-glutamic acid (SH-SY5Y nerve cells [1]) | protection effect on SY5Y cell damage models induced by H2O2 (SH-SY5Y nerve cells [2]) | protective effect on PC-12 cells (PC-12 cells)
CCOC(=O)/C(C)=C/C=C/C(C)=C/C=C/C=C(C)/C=C/C=C(\C)C(=O)O[C@@H]1O[C@H](CO[C@@H]2O[C@H](CO)[C@@H](O)[C@H](O)[C@H]2O)[C@@H](O)[C@H](O)[C@H]1O [GJ-8, neocrocin H] | more excellent protection effects | more excellent protection effects | –
CC(/C=C/C=C(\C)C(=O)O)=C\C=C\C=C(C)\C=C\C=C(/C)C(=O)O[C@@H]1OC(CO[C@@H]2OC[C@@H](O)C(O)C2O)[C@@H](O)C(O)C1O (stereo partly shown) [GJ-10, neocrocin J] | more excellent protection effects | more excellent protection effects | –
C\C(C=O)=C/C=C/C(C)=C/C=C/C=C(C)/C=C/C=C(\C)C(=O)O[C@@H]1OC(CO[C@@H]2OC(CO)[C@@H](O)C(O)C2O)[C@@H](O)C(O)C1O (stereo partly shown) [GJ-9, neocrocin I] | more excellent protection effects | – | –
CC(/C=C/C=C(\C)C(=O)O[C@@H]1OC(CO[C@@H]2OC(CO)[C@@H](O)C(O)C2O)[C@@H](O)C(O)C1O)=C\C=C\C=C(C)\C=C\C=C(/C)C(=O)O[C@@H]1[C@@H](O)C[C@](O)(C(=O)O)C[C@H]1OC(=O)/C=C/c1ccc(O)c(O)c1 (stereo in doubt) [GJ-1, neocrocin B] | more excellent protection effects | – | –
COc1cc(/C=C/C(=O)OCC2O[C@@H](OCC3O[C@@H](OC(=O)/C(C)=C/C=C/C(C)=C/C=C/C=C(C)/C=C/C=C(\C)C(=O)O)C(O)C(O)[C@@H]3O)C(O)C(O)[C@@H]2O)cc(OC)c1O (stereo partly shown) [GJ-7, neocrocin F] | more excellent protection effects | – | –
CC(/C=C/C=C(\C)C(=O)O[C@@H]1O[C@H](CO[C@@H]2O[C@H](CO)[C@@H](O)[C@H](O)[C@H]2O)[C@@H](O)[C@H](O)[C@H]1O)=C\C=C\C=C(C)\C=C\C=C(/C)C(=O)O[C@@H]1O[C@H](CO[C@@H]2O[C@H](CO)[C@@H](O)[C@H](O)[C@H]2O)[C@@H](O)[C@H](O)[C@H]1O [crocin-1, crocin digentiobioside] | – | – | protective effect on PC-12 cells
COc1cc(/C=C/C(=O)OCC2O[C@@H](OCC3O[C@@H](OC(=O)/C(C)=C/C=C/C(C)=C/C=C/C=C(C)/C=C/C=C(\C)C(=O)O[C@@H]4OC(CO[C@@H]5OC(CO)[C@@H](O)C(O)C5O)[C@@H](O)C(O)C4O)C(O)C(O)[C@@H]3O)C(O)C(O)[C@@H]2O)cc(OC)c1O (stereo partly shown) [GJ-6, neocrocin G] | more excellent protection effects | more excellent protection effects | –
